Test results: the NIST ThermoML archive (doi:10.1021/je700140j)

Test: xn = mol fraction of the nth substance listed
Conditions: for surface tension liquid-gas: Ring tensiometer; for mass density / viscosity: 100.8 kPa, Liquid

OCCc1ccccc1 [2-phenylethanol] + CC(C)O
Conditions	mass density, 298.15 K [kg/m3]	mass density, 308.15 K [kg/m3]	mass density, 318.15 K [kg/m3]	surface tension liquid-gas, 298.15 K [mN/m]	surface tension liquid-gas, 308.15 K [mN/m]	surface tension liquid-gas, 318.15 K [mN/m]	viscosity, 298.15 K [mPa·s]	viscosity, 308.15 K [mPa·s]	viscosity, 318.15 K [mPa·s]
x2 = 0	1016.2	1008.63	1000.98	39.43	38.93	38.35	11.4	7.518	5.232
x2 = 0.05	1009.41	1002.31	994.22	38.1	37.7	37.2	10.66	7.05	4.953
x2 = 0.1	1002.07	994.92	986.78	36.9	36.58	36.13	9.933	6.594	4.645
x2 = 0.15	994.41	986.76	978.99	35.8	35.47	35.05	9.256	6.148	4.366
x2 = 0.2	986.36	978.65	970.82	34.7	34.38	33.97	8.618	5.726	4.103
x2 = 0.25	977.95	970.19	962.28	33.63	33.28	32.88	8	5.341	3.85
x2 = 0.3	969.14	961.31	953.36	32.61	32.23	31.8	7.407	4.969	3.6
x2 = 0.35	959.91	952.04	943.99	31.6	31.19	30.75	6.858	4.621	3.362
x2 = 0.4	950.21	942.3	934.2	30.6	30.17	29.7	6.35	4.286	3.132
x2 = 0.45	940.02	932.05	923.92	29.6	29.16	28.68	5.862	3.964	2.912
x2 = 0.5	929.31	921.29	913.06	28.62	28.16	27.68	5.412	3.67	2.713
x2 = 0.55	918.04	909.98	901.7	27.65	27.17	26.68	4.978	3.389	2.524
x2 = 0.6	906.21	898.08	889.7	26.7	26.2	25.7	4.571	3.124	2.342
x2 = 0.65	893.62	885.47	877.03	25.8	25.3	24.83	4.173	2.876	2.162
x2 = 0.7	880.35	872.12	863.6	24.98	24.48	24	3.793	2.634	1.989
x2 = 0.75	866.25	857.98	849.39	24.2	23.68	23.2	3.438	2.407	1.823
x2 = 0.8	851.34	842.99	834.3	23.45	22.9	22.45	3.101	2.201	1.665
x2 = 0.85	835.47	827.04	818.29	22.75	22.2	21.7	2.808	2.009	1.526
x2 = 0.9	818.57	810.09	801.28	22.1	21.5	20.97	2.541	1.859	1.415
x2 = 0.95	800.54	792	783.08	21.5	20.8	20.18	2.281	1.693	1.298

OCCc1ccccc1 [2-phenylethanol] + OCc1ccccc1
Conditions	mass density, 298.15 K [kg/m3]	mass density, 308.15 K [kg/m3]	mass density, 318.15 K [kg/m3]	surface tension liquid-gas, 298.15 K [mN/m]	surface tension liquid-gas, 308.15 K [mN/m]	surface tension liquid-gas, 318.15 K [mN/m]	viscosity, 298.15 K [mPa·s]	viscosity, 308.15 K [mPa·s]	viscosity, 318.15 K [mPa·s]
x2 = 0	1016.2	1008.63	1000.98	39.43	38.93	38.35	11.4	7.518	5.232
x2 = 0.05	1018.11	1010.83	1003.42	–	–	–	11.07	7.322	5.116
x2 = 0.1	1020.14	1013.11	1005.98	39.2	38.7	38.11	10.73	7.132	5
x2 = 0.15	1022.33	1015.32	1008.23	–	–	–	10.41	6.94	4.883
x2 = 0.2	1024.45	1017.42	1010.36	39	38.48	37.86	10.08	6.752	4.77
x2 = 0.25	1026.56	1019.52	1012.41	–	–	–	9.759	6.564	4.655
x2 = 0.3	1028.52	1021.44	1014.25	38.83	38.28	37.63	9.44	6.372	4.542
x2 = 0.35	1030.34	1023.25	1015.99	–	–	–	9.125	6.186	4.43
x2 = 0.4	1032.11	1024.95	1017.65	38.7	38.1	37.41	8.816	5.999	4.32
x2 = 0.45	1033.8	1026.61	1019.28	–	–	–	8.506	5.815	4.21
x2 = 0.5	1035.25	1028.06	1020.74	38.6	37.95	37.21	8.203	5.636	4.101
x2 = 0.55	1036.33	1029.16	1021.87	–	–	–	7.913	5.467	3.997
x2 = 0.6	1037.32	1030.12	1022.84	38.6	37.9	37.12	7.628	5.302	3.897
x2 = 0.65	1038.01	1030.89	1023.63	–	–	–	7.351	5.14	3.797
x2 = 0.7	1038.62	1031.56	1024.26	38.6	37.85	37.02	7.081	4.979	3.697
x2 = 0.75	1039.06	1031.9	1024.63	–	–	–	6.813	4.821	3.599
x2 = 0.8	1039.43	1032.23	1024.86	38.6	37.8	36.92	6.554	4.666	3.5
x2 = 0.85	1039.72	1032.44	1024.99	–	–	–	6.296	4.519	3.402
x2 = 0.9	1040	1032.65	1025.18	38.6	37.76	36.84	6.036	4.374	3.306
x2 = 0.95	1040.59	1033.06	1025.43	–	–	–	5.787	4.232	3.213
